Experimental data published in patent US20240241113A1, “Method for detecting binding to an ADP-ribosyl group or a polymer thereof and a kit for performing said method” (priority 2021, published 2024).

Key:
[1] = target: CFP-ALC1 (human) (UniProt Q86WJ1); assay: FRET competition: 250 nM CFP-ALC1 + 500 nM YFP-GAP(PAR), PARylated PARP2 varied; displaced ligand YFP-GAP(PAR) [e]
[2] = target: T1, SARS-CoV-2 nsp3 macrodomain (Severe acute respiratory syndrome coronavirus 2, UniProt P0DTD1); assay: FRET-based binding assay, CFP-SARS-CoV-2 nsp3 macrodomain with MARylated YFP-Gαi
Method: (§1) The experiments were carried out in assay buffer (10 mM Bis-Tris-Propane pH 7.0, 3% (w/v) PEG20,000, 0.01% (v/v) Triton X-100 and 0.5 mM TCEP) in 10 μl volume per well unless stated otherwise.
For the screening, 40 nl of 10 mM compound stocks dissolved in DMSO from the FDA-approved drug library (Enzo Life Sciences) were transferred to 384-well black low-volume polypropylene plates (Fisherbrand). The sample mixture containing 1 μM CFP-SARS-CoV-2 nsp3 macrodomain and 5 μM MARylated YFP-Gαi was prepared in assay buffer (10 mM Bis-Tris-Propane pH 7.0, 3% (w/v) PEG20,000, 0.01% (v/v) Triton X-100 and 0.5 mM TCEP) and 20 μl per well were dispensed using Mantis (Formulatrix). The rFRET signal was determined after 5 minute incubation time.

[3] = target: T1, SARS-CoV-2 nsp3 macrodomain; assay: Validation of suramin binding by DSF; settings: 5 μM macrodomain without tags, suramin 10 μM, 50 μM, 100 μM or 1 mM
Method: The SARS-CoV-2 nsp3 macrodomain without tags was diluted to 5 μM in 10 mM HEPES pH 7.5, 25 mM NaCl, 0.5 mM TCEP buffer and mixed with 5×SYPRO Orange. Samples were prepared with 10 μM, 50 μM, 100 μM or 1 mM of suramin. […] Samples were transferred to 96-well qPCR plates. Measurement was performed in a BioRad C1000 CFX96 thermal cycler. Data points for melting curves were recorded in 1 min intervals from 20-95° C., with the temperature increasing by 1° C./min. The analysis of the data was done in GraphPad Prism 7 using a nonlinear regression analysis (Boltzmann sigmoid equation) of normalized data.

[4] = system: viral and human ADP-ribose readers and erasers; assay: FRET inhibition profile against ADP-ribosyl binders with YFP-GAP(MAR) or YFP-GAP(PAR); type: binding; settings: 10 μM suramin; many of the proteins tested; ratiometric FRET
Method: as §1

[5] = system: SARS-CoV2; settings: cell-culture based models; reported; cited from earlier work

Sequence of CFP-ALC1 (human) (Q86WJ1 616-878 limits assumed): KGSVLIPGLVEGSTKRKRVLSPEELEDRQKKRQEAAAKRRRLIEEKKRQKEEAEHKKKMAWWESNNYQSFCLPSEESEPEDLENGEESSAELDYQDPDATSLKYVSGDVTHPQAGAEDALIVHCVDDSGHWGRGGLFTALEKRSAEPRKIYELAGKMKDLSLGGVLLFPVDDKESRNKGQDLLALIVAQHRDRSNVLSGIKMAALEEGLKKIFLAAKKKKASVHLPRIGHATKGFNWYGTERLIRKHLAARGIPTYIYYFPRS

Compound | IC50 (read off the curve) [1] [µM] | inhibition at 20 µM ([2]; 20 μM compound, 1 μM CFP-SARS-CoV-2 nsp3 macrodomain, 5 μM MARylated YFP-Gαi, rFRET, read-out: inhibition in screen of ENZO FDA-approved drug library) [%] | IC50 ([2]; FRET-based assay, dose-response curve, read-out: IC50 against the SARS-CoV-2 nsp3 macrodomain) [µM] | stabilization of the protein by DSF [3] | stabilization of the protein by DSF ([3]; listed as Suramin) | inhibition of viral and human ADP-ribose readers and erasers [4] | inhibition of SARS-CoV2 infection [5]
PARylated PARP2 (from UniProt Q9UGN5 90-583) (enzyme) | 0.03 |  |  |  |  |  | 
Cc1ccc(C(=O)Nc2ccc(S(=O)(=O)O)c3cc(S(=O)(=O)O)cc(S(=O)(=O)O)c23)cc1NC(=O)c1cccc(NC(=O)Nc2cccc(C(=O)Nc3cc(C(=O)Nc4ccc(S(=O)(=O)O)c5cc(S(=O)(=O)O)cc(S(=O)(=O)O)c45)ccc3C)c2)c1 [suramin] |  | 82 | 8.7 | stabilization of the protein in a concentration dependent manner | stabilization | strong inhibition | inhibit
